Series [1] has as its target T1, A156T mutant of the HCV NS3/4A 1b protease enzyme (Hepatitis C virus genotype 1b, UniProt P26663, A1182T).
T1 construct: 10× stocks of NS3/4A protease enzyme from Bioenza (Mountain View, Calif.); purchased Bioenza (Mountain View, Calif.)
Briefly: HCV Protease FRET Assay (IC50_APP), A156T mutant. Type of series: biochemical. As to conditions: apparent IC50, A156T mutant; read-out: IC50_APP, HCV A156T.

Series [2] deals with T2, D168A mutant of the HCV NS3/4A 1b protease enzyme (Hepatitis C virus genotype 1b, UniProt P26663, D1194A).
T2 construct: 10× stocks of NS3/4A protease enzyme from Bioenza (Mountain View, Calif.); purchased Bioenza (Mountain View, Calif.)
Briefly: HCV Protease FRET Assay (IC50), D168A mutant. The format is biochemical. The following applies: read-out: Inhibition, HCV D168A; D168A enzyme, FRET assay.

The target in series [3] is T3, wild type HCV NS3/4A 1b protease enzyme (Hepatitis C virus genotype 1b, UniProt P26663).
T3 construct: 10× stocks of NS3/4A protease enzyme from Bioenza (Mountain View, Calif.); purchased Bioenza (Mountain View, Calif.)
Briefly: HCV Protease FRET Assay (IC50_APP), wild type. As to conditions: read-out: IC50_APP, WT; apparent IC50, wild type NS3/4A 1b. The format is biochemical.

The target in series [4] is T2, D168A mutant of the HCV NS3/4A 1b protease enzyme. Briefly: HCV Protease FRET Assay (IC50_APP), D168A mutant. Type of series: biochemical. As to conditions: apparent IC50, D168A mutant; read-out: IC50_APP, HCV D168A.
Series [5] addresses T3, wild type HCV NS3/4A 1b protease enzyme. The experiment in a line: biochemical. Type of series: biochemical. The following applies: read-out: Inhibition, WT; WT enzyme, FRET assay.
The target of series [6] is T1, A156T mutant of the HCV NS3/4A 1b protease enzyme. The experiment in a line: HCV Protease FRET Assay (IC50), A156T mutant. Type of series: biochemical. As to conditions: read-out: Inhibition, HCV A156T; A156T enzyme, FRET assay. The procedure: HCV Protease FRET Assay for Wild Type and Mutated NS3/4A 1b Enzymes (IC50)
The protocol is a modified FRET-based assay (v—02) from In Vitro Resistance Studies of HCV Serine Protease Inhibitors, 2004, JBC, vol. 279, No. 17, pp 17508-17514.
10× stocks of NS3/4A protease enzyme from Bioenza (Mountain View, Calif.) and 1.13× 5-FAM/QXL™ 520 FRET peptide substrate from Anaspec (San Jose, Calif.) were prepared in 50 mM HEPES, pH 7.8, 100 mM NaCl, 5 mM DTT and 20% glycerol. 5 μL of each enzyme were pre-incubated in a Corning (#3573) 384-well, black, non-treated microtiter plate (Corning, N.Y.) for 30 min at 25° C. with a 0.5 μL volume of 50% DMSO and serially diluted compounds prepared in 50% DMSO. Protease reactions were started with the addition of 45 μL of the FRET substrate and monitored for 120 minutes at λex487/λem514 through Quad^4 monochromoters in a Synergy^4 plate reader from BioTek (Winooski, Vt.). At the conclusion of each assay, progress curves from each well were examined for linear reaction kinetics and fit statistics (R^2, absolute sum of squares). Initial velocity (0 minutes to 30+ minutes) from each reaction was determined from the slope of a plot of relative fluorescence units vs time (minutes) and then plotted against inhibitor concentration to estimate IC50 from log[Inhibitor] vs Response, Variable Slope model in GraphPad Prism from GraphPad Software (San Diego, Calif.).
The compound numbers correspond to the compound numbers in Table 3. […] ;

Series [7] has as its system HCV RNA replicon in cell line ET (luc-ubi-neo/ET), human Huh7 hepatoma. The experiment in a line: Method A: HCV RNA replicon antiviral assay (luciferase, ET cell line). The following applies: Hepatitis C virus, Huh-7. The format is cell-based, Hepatitis C virus. The essentials: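 Six 3-fold dilutions of each drug were tested on subconfluent luc-ubi-neo/ET Huh7 replicon cells (5×10^3/well) for 72 hr at 37 °C. EC50 and EC90 came from luciferase read-out, IC50 from CytoTox-1 cell number, and […]; interferon alpha-2b was run each time as control.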
A general note: A replicon is a self-replicating genome or part of one, used to study replication in cells.

The subject of series [8] is cell line ET (luc-ubi-neo/ET), human Huh7 hepatoma cell line. Briefly: Method A: cytotoxicity in ET replicon cells (CytoTox-1). Type of series: cell-based. The following applies: concentration decreasing cell viability by 50%, 72 hr. The essentials:
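ET cells (Huh7 carrying luciferase HCV replicon), 5×10^3 cells/well, given six 3-fold compound concentrations in DMEM with 5% FBS. After 72 hr, while subconfluent, cell number was measured with CytoTox-1 reagent. Interferon alpha-2b served as positive control.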

Where [9] appears, read: Replicon, assay of Example 22, 72 hr, read-out: Inhibition, Replicon.
The mark [10] stands for this setting: assay described in Example 22, read-out: Replicon (IC50).

Where two headings read alike, the source gives them in different places.

Usually IC90 stands for the point of the concentration-response curve where the effect stands at 90%. Low readings indicate greater potency, high ones weaker potency. As for `C=CC(=O)N(C)CC[C@H](NC(=O)OC(C)(C)C)C(=O)N1C[C@H](Oc2cc(-c3ccccc3)nc3cc(OC)ccc23)C[C@H]1C(=O)N[C@]1(C(=O)NS(=O)(=O)c2ccccc2)C[C@H]1C=C` [Compound I-12, (2S)-2-[[(1,1-dimethylethoxy)carbonyl]amino]-4-(2-propenoyl)methylamino-butanoyl-(4R)-4-[(7-methoxy-2-phenyl-4-quinolinyl)oxy]-L-prolyl-1-amino-2-ethenyl-N-(phenylsulfonyl)-(1R,2S)-cyclopropanecarboxamide], the IC50 in series [1] is 1 to 10 µM; in series [2], 0.01 to 0.1 µM; in series [3] it was below 0.01 µM; in series [4] it was 1 to 10 µM; in series [5], below 0.01 µM; in series [6] it was 0.01 to 0.1 µM. Also, the IC50 in series [7] (setting [9]) and in series [7] (setting [10]) was 0.01 to 0.1 µM in each case. The 90% effect concentration (IC90) in series [7] (assay described in Example 22) was in the range of 0.1 to 1 µM. Moreover, the “Inhibition, Cytotoxicity” value in series [8] is “D (IC50>1000 nM and <10,000 nM)”.

With `C=C[C@@H]1C[C@]1(NC(=O)[C@@H]1C[C@@H](Oc2cc(-c3ccccc3)nc3cc(OC)ccc23)CN1C(=O)[C@H](CNC(=O)C(C)Br)NC(=O)OC(C)(C)C)C(=O)NS(=O)(=O)c1ccccc1` (stereo partly drawn) [Compound I-22, tert-butyl(S)-3-(2-bromopropanamido)-1-((2S,4R)-4-(7-methoxy-2-phenylquinolin-4-yloxy)-2-((1R,2S)-1-(phenylsulfonylcarbamoyl)-2-vinylcyclopropylcarbamoyl)pyrrolidin-1-yl)-1-oxopropan-2-ylcarbamate], the IC50 is 1 to 10 µM in series [1]; 0.01 to 0.1 µM in series [2]; below 0.01 µM in series [3]; 1 to 10 µM in series [4]; below 0.01 µM in series [5]; 0.01 to 0.1 µM in series [6]. Moreover, the IC50 in series [7] (setting [9]) and in series [7] (setting [10]) was 0.1 to 1 µM in each case. In addition, the 90% effect concentration (IC90) in series [7] (assay described in Example 22) is above 10 µM. Besides, the “Inhibition, Cytotoxicity” value in series [8] is “D (IC50>1000 nM and <10,000 nM)”.

Regarding `C=CC(=O)N(C)C[C@H](NC(=O)OC(C)(C)C)C(=O)N1C[C@H](Oc2cc(-c3ccccc3)nc3cc(OC)ccc23)C[C@H]1C(=O)N[C@]1(C(=O)NS(=O)(=O)c2ccccc2)C[C@H]1C=C` [Compound I-28, tert-butyl-(S)-1-((2S,4R)-4-(7-methoxy-2-phenylquinolin-4-yloxy)-2-((1R,2S)-1-(phenylsulfonylcarbamoyl)-2-vinylcyclopropylcarbamoyl)pyrrolidin-1-yl)-3-(N-methylacrylamido)-1-oxopropan-2-ylcarbamate], the IC50 in series [1] was 1 to 10 µM; in series [2] it was 0.1 to 1 µM; in series [3], below 0.01 µM; in series [4] it was 1 to 10 µM; in series [5], below 0.01 µM; in series [6] it was 0.01 to 0.1 µM. Further, the IC50 in series [7] (setting [9]) is below 0.01 µM; in series [7] (setting [10]), 0.01 to 0.1 µM. This molecule registered an IC90 in series [7] (assay described in Example 22) of 0.1 to 1 µM. Also, the “Inhibition, Cytotoxicity” value in series [8] is “D (IC50>1000 nM and <10,000 nM)”.

Take `C=C[C@@H]1C[C@]1(NC(=O)[C@@H]1C[C@@H](Oc2cc(-c3ccccc3)nc3cc(OC)ccc23)CN1C(=O)[C@H](CN(C)C(=O)[C@H](Cl)c1ccccc1)NC(=O)OC(C)(C)C)C(=O)NS(=O)(=O)c1ccccc1` [Compound I-33, tert-butyl-(2S)-3-(2-chloro-N-methyl-2-phenylacetamido)-1-((2S,4R)-4-(7-methoxy-2-phenylquinolin-4-yloxy)-2-((1R,2S)-1-(phenylsulfonylcarbamoyl)-2-vinylcyclopropylcarbamoyl)pyrrolidin-1-yl)-1-oxopropan-2-ylcarbamate]: the IC50 in series [1] is 1 to 10 µM; in series [2], 0.1 to 1 µM; in series [3], below 0.01 µM; in series [4], 1 to 10 µM; in series [5], below 0.01 µM; in series [6], 0.1 to 1 µM. Further, the IC50 in series [7] (setting [9]) and in series [7] (setting [10]) was below 0.01 µM in each case. In series [7] (assay described in Example 22), this molecule came in with a concentration for an effect of 90% (IC90) of 0.01 to 0.1 µM. The “Inhibition, Cytotoxicity” value in series [8] was “E (IC50≧10,000 nM)”.

On to `C=CC(=O)NC[C@H](NC(=O)OC(C)(C)C)C(=O)N1C[C@H](Oc2cc(-c3ccccc3)nc3cc(OC)ccc23)C[C@H]1C(=O)N[C@]1(C(=O)NS(=O)(=O)C2CC2)C[C@H]1C=C` [Compound I-35, tert-butyl-(S)-3-acrylamido-1-((2S,4R)-2-((1R,2S)-1-(cyclopropylsulfonylcarbamoyl)-2-vinylcyclopropylcarbamoyl)-4-(7-methoxy-2-phenylquinolin-4-yloxy)pyrrolidin-1-yl)-1-oxopropan-2-ylcarbamate], for which the IC50 in series [1] was 0.1 to 1 µM; in series [2] it was below 0.01 µM; in series [3], below 0.01 µM; in series [4], 0.1 to 1 µM; in series [5], below 0.01 µM; in series [6], below 0.01 µM. The results for the IC50 in series [7] (setting [9]) and in series [7] (setting [10]) were below 0.01 µM and 0.01 to 0.1 µM, respectively. The concentration for an effect of 90% (IC90) in series [7] (assay described in Example 22) is 0.1 to 1 µM. Also, the “Inhibition, Cytotoxicity” value in series [8] was “C (IC50>100 nM and ≦1000 nM)”.

As for `C=CC(=O)NCC(=O)N1C[C@H](Oc2cc(-c3ccccc3)nc3cc(OC)ccc23)C[C@H]1C(=O)N[C@]1(C(=O)NS(=O)(=O)C2CC2)C[C@H]1C=C` [Compound I-39, (2S,4R)-1-(2-acrylamidoacetyl)-N-((1R,2S)-1-(cyclopropylsulfonylcarbamoyl)-2-vinylcyclopropyl)-4-(7-methoxy-2-phenylquinolin-4-yloxy)pyrrolidine-2-carboxamide], the IC50 is 0.01 to 0.1 µM in series [1]; below 0.01 µM in series [2]; below 0.01 µM in series [3]; 0.1 to 1 µM in series [4]; below 0.01 µM in series [5]; below 0.01 µM in series [6]. Moreover, the IC50 in series [7] (setting [9]) and in series [7] (setting [10]) was 0.01 to 0.1 µM throughout. This molecule yielded an IC90 in series [7] (assay described in Example 22) of 0.1 to 1 µM. Further, the “Inhibition, Cytotoxicity” value in series [8] was “C (IC50>100 nM and ≦1000 nM)”.

In the case of `C=CC(=O)N[C@H](C)C(=O)N1C[C@H](Oc2cc(-c3ccccc3)nc3cc(OC)ccc23)C[C@H]1C(=O)N[C@]1(C(=O)NS(=O)(=O)c2ccccc2)C[C@H]1C=C` [Compound I-46, (2S,4R)-1-((R)-2-acrylamidopropanoyl)-4-(7-methoxy-2-phenylquinolin-4-yloxy)-N-((1R,2S)-1-(phenylsulfonylcarbamoyl)-2-vinylcyclopropyl)pyrrolidine-2-carboxamide], the IC50 in series [1] was 0.01 to 0.1 µM; in series [2], below 0.01 µM; in series [3], below 0.01 µM; in series [4], 0.1 to 1 µM; in series [5] it was below 0.01 µM; in series [6] it was below 0.01 µM. Moreover, the IC50 in series [7] (setting [9]) and in series [7] (setting [10]) was below 0.01 µM in each case. The same molecule registered an IC90 in series [7] (assay described in Example 22) below 0.01 µM. The “Inhibition, Cytotoxicity” value in series [8] is “C (IC50>100 nM and ≦1000 nM)”.

The values above are taken from US8309685B2 (Celgene Avilomics Research, Inc., priority 2007, dated 2012).
